Results on 5 compounds are retold here after patent publication US20150368220A1, “PHARMACEUTICAL COMPOSITION FOR TREATING OR PREVENTING STRESS URINARY INCONTINENCE OR MIXED URINARY INCONTINENCE, AND METHOD FOR SCREENING COMPOUND COMPRISED IN SAID PHARMACEUTICAL COMPOSITION” (Astellas Pharma Inc., priority 2012, published 2015).

The subject of assay [1] is SD female rat. Description: Effect on urethral pressure, perfusion method (Example 4). In kind it is in vivo. On the procedure: An SD female rat was anesthetized with urethane and allowed to undergo laparotomy, the bladder dome was then incised, and a catheter having a barb at the tip was inserted toward the urethra from the bladder, and ligated and fixed such that the tip of the catheter was positioned around the proximal urethra. Physiological saline was injected at a predetermined flow rate into the urethra through the catheter and the urethral pressure was measured with a pressure transducer. After the urethral pressure was stabilized, compounds dissolved in physiological saline, or physiological saline containing 5% N,N-dimethylacetamide(DMA) and 0.5% Cremophor were intravenously administered at a dose of 1 μg/kg, 10 μg/kg, 100 μg/kg, or 1000 μg/kg and a change in the urethral pressure was measured.

In assay [2] the target is T1, human MT1 receptor (Homo sapiens, UniProt P48039).
T1 construct: expressed in transfected cells; vector pCDNA3.1/Zeo; co-transfected with a Gq/i chimeric G protein expression vector
Description: Intracellular Ca2+ concentration by FLIPR in human MT1 receptor expressing cells (Example 2). The assay is classed as cell-based. The following applies: human MT1 receptor expressing HEK293 cells, 10^-5 M to 10^-12 M, FIGS. 2 and 4. On the procedure:
(§1) The expression vectors for human MT1 and MT2 receptors were introduced into HEK293 cells, together with a Gq/i chimeric G protein expression vector, respectively. The incorporation was carried out in accordance with instructions, using a Lipofectoamine (registered trademark) 2000 Reagent (Invitrogen Inc.). Using Zeocin and hygromycin as a resistant agent, the cells were cultured for 15 days in the presence of 0.02 mg/mL and 0.05 mg/mL of the agents, respectively, thereby acquiring a drug-resistant clone.
(§2) The respective stably expressing cells were dispensed into 96 wells in a poly-D-lysine-coated plate (Falcon) the day before the experiment to give 40,000 cells/well, and cultured in a DMEM (Invitrogen Inc.) medium containing 10% FBS at 37° C. and 5% CO2 overnight. The medium was replaced with a loading buffer (a washing solution containing 4 μM Fluo-4AM (Dojindo Co.) (Hank's balanced salt solution (HBSS), 20 mM HEPES-NaOH, 2.5 mM probenecid)) and cultured at 37° C. and 5% CO2 for 1 hour.

Assay [3] has as its target T2, human MT2 receptor (Homo sapiens, UniProt P49286).
T2 construct: expressed in transfected cells; vector pCDNA3.1/Zeo; co-transfected with a Gq/i chimeric G protein expression vector
T2 sequence (P49286 1-362): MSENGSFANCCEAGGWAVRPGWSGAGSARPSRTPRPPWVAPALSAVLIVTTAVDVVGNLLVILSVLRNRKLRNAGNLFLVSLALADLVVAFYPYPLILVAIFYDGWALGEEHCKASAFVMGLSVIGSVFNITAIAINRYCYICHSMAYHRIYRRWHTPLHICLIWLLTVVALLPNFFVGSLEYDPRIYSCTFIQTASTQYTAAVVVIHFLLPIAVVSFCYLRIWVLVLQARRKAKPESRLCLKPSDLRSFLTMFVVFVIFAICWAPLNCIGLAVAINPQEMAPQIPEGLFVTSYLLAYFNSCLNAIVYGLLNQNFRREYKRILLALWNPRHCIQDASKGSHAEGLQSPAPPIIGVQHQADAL
Briefly: Intracellular Ca2+ concentration by FLIPR in human MT2 receptor expressing cells (Example 2). The assay is classed as cell-based. The following applies: human MT2 receptor expressing HEK293 cells, 10^-5 M to 10^-12 M, FIGS. 3 and 5. On the procedure:
as §1, §2

Assay [4] deals with isolated urethra. Description: Urethra contracting action using isolated urethra (Example 3). The following applies: isolated urethra of SD female rat, cumulative 10^-5 M to 10^-12 M, FIGS. 6 and 7. On the procedure:
The urethra was isolated from an SD female rat having a body weight of 100 g to 500 g. The isolated urethra was incised vertically and then made into strip-shaped specimens having a width of about 3 mm. The specimens were suspended in a 10 mL tissue bus filled with a Krebs—Henseleit solution (pH 7.4) in the circular muscle direction. The Krebs—Henseleit solution was aerated at 95% O2 and 5% CO2, and warmed at 37° C. The resting tension was set to 0.5 g and the isometric contraction was recorded. After the resting tension was stabilized, a 10 μM phenylephrine solution was added thereto to cause contraction.

Assay [5] deals with T1, human MT1 receptor. Description: Effect of luzindole on ramelteon-induced intracellular Ca2+ increase in human MT1 receptor expressing cells (Example 5). In kind it is cell-based. The following applies: for intracellular Ca^2+ concentration increasing action: action by 10^-6 M ramelteon = 100%. The protocol: (§3) The respective stably expressing cells were dispensed into 96 wells in a poly-D-lysine-coated plate (Falcon) the day before the experiment to give 40,000 cells/well, and cultured in a DMEM (Invitrogen Inc.) medium containing 10% FBS at 37° C. and 5% CO2 overnight. The medium was replaced with a loading buffer (a washing solution containing 4 μM Fluo-4AM (Dojindo Co.) (Hank's balanced salt solution (HBSS), 20 mM HEPES-NaOH, 2.5 mM probenecid)) and cultured at 37° C. and 5% CO2 for 1 hour. Thereafter, the cells were washed with a plate washer (EL×405, BIO-TEK Instrument Inc.) having a washing solution set therein, and set in an intracellular Ca concentration measuring system (FLIPR (registered trademark), Molecular Device Inc.). Luzindole was preliminarily dissolved in a washing solution, diluted to a final concentration of 10^−5 M to 10^−7 M, and left to stand at room temperature for 5 minutes. Ramelteon was preliminarily dissolved in a washing solution and diluted to a final concentration of 10^−5 M to 10^−11 M, the resultant was set in an FLIPR (registered trademark) device together with the cells after leaving to stand for 5 minutes after the addition of luzindole, the cells were added to the device, and a change in the intracellular Ca^2+ concentration at that time was measured.

Assay [6] has as its target T2, human MT2 receptor. Description: Effect of luzindole on ramelteon-induced intracellular Ca2+ increase in human MT2 receptor expressing cells (Example 5). In kind it is cell-based. The following applies: for intracellular Ca^2+ concentration increasing action: action by 10^-6 M ramelteon = 100%. The protocol:
as §3

The test system of assay [7] is isolated urethra. Description: Effect of luzindole on urethra contracting action of ramelteon in isolated urethra (Example 5). Further details: species or system rat. The following applies: for isolated urethra contracting action: contraction by 1 μM ramelteon at first time = 100%. On the procedure: The urethra was isolated from an SD female rat having a body weight of 100 g to 500 g. The isolated urethra was incised vertically and then made into strip-shaped specimens having a width of about 3 mm. The specimens were suspended in a 10 mL tissue bus filled with a Krebs-Henseleit solution (pH 7.4) in the circular muscle direction or the longitudinal muscle direction. […] The resting tension was set to 0.5 g and the isometric contraction was recorded. After the resting tension was stabilized, a 10 μM phenylephrine solution was added thereto to cause contraction. After washing and stabilizing, the compound (ramelteon) was cumulatively added to a final concentration of 10^−5 M to 10^−12 M and the contraction response was measured. After washing and stabilizing, luzindole was added, after 20 minutes, ramelteon was cumulatively added again, and the contraction response was measured.

Where [8] appears, read: intravenous, anesthetized SD female rat, FIGS. 10 to 14.
Setting [9] is: final concentration of ramelteon 10^-5 M.

T1 sequence (P48039 whole entry): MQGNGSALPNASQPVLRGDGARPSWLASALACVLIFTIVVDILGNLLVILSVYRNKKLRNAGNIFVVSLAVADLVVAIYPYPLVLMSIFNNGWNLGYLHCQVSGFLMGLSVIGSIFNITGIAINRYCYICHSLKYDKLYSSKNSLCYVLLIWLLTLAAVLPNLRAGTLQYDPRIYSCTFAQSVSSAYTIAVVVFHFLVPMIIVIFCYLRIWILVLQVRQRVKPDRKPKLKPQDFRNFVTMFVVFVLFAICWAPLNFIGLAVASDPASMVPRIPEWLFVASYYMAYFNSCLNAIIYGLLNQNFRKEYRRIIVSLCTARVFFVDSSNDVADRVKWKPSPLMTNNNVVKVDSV

For `COc1ccc(OC)c(C(O)CN)c1` (stereo not shown) [ST-1059], the “urethral pressure increasing action” value in assay [1] (rat, dose 0.01 mg/kg) turned out to be 4.9±1.1 mmHg.

Turning to `COc1cc2c([C@@H](C)CNC(C)=O)c[nH]c2cc1Cl` [TIK-301, N-[(2R)-2-(6-chloro-5-methoxy-1H-indol-3-yl)propyl]acetamide], the “intracellular Ca^2+ concentration (melatonin receptor activating action)” value in assay [2] and in assay [3] was “increased” each time. In assay [4], the urethra contracting action entry is “contracted the isolated urethra”. The “urethral pressure increasing action” value in assay [1] (setting [8]) was “increased the urethral pressure”.

Take `COc1ccc2cccc(CCNC(C)=O)c2c1` [agomelatine, N-[2-(7-methoxynaphth-1-yl)ethyl]acetamide]: the “intracellular Ca^2+ concentration (melatonin receptor activating action)” value in assay [2] and in assay [3] was “increased” each time. Moreover, in assay [4], the urethra contracting action entry is reported as “contracted the isolated urethra”. In assay [1] (setting [8]), the “urethral pressure increasing action” value was “increased the urethral pressure”.

For `CC(=O)NCCc1c(Cc2ccccc2)[nH]c2ccccc12` [luzindole, N-[2-[2-(phenylmethyl)-1H-indol-3-yl]ethyl]acetamide], the “inhibition of the increase in intracellular Ca^2+ concentration by ramelteon” value is given as “inhibited” in assay [5] (MT1 receptor expressing cells, FIG. 15) and “inhibited” in assay [6] (MT2 receptor expressing cells, FIG. 16). Also, the “intracellular Ca^2+ concentration increasing action” value in assay [5] (MT1 receptor expressing cells, ramelteon 10^-5 M with 10^-5 M luzindole) is listed as 94%; in assay [5] (MT1 receptor expressing cells, ramelteon 10^-5 M with 10^-6 M luzindole) it was 97%; in assay [5] (MT1 receptor expressing cells, ramelteon 10^-5 M with 10^-7 M luzindole), 100%; in assay [6] (MT2 receptor expressing cells, ramelteon 10^-5 M with 10^-5 M luzindole), 52%; in assay [6] (MT2 receptor expressing cells, ramelteon 10^-5 M with 10^-6 M luzindole), 60%; in assay [6] (MT2 receptor expressing cells, ramelteon 10^-5 M with 10^-7 M luzindole) it was 62%. For the same compound, the “inhibiting action on the MT1 receptor” value in assay [5] (setting [9]) is on record as “substantially did not exhibit an inhibiting action”. In assay [6] (comparison of MT2 and MT1 receptor expressing cells), the “inhibiting action, MT2 versus MT1 receptor expressing cells” value is reported as “stronger in the MT2 receptor expressing cells than in the MT1 receptor expressing cells”. The “inhibiting action on isolated urethra contracting action” value in assay [7] (setting [9]) is recorded as “substantially did not exhibit an inhibiting action”. The results for the “isolated urethra contracting action” value in assay [7] (ramelteon 10^-5 M with 10^-5 M luzindole), in assay [7] (ramelteon 10^-5 M with 10^-6 M luzindole) and in assay [7] (ramelteon 10^-5 M with 10^-7 M luzindole) were 78%, 94% and 101%, respectively. Further, in assay [7] (treatment with luzindole 10^-7 M to 10^-5 M, FIG. 17), the “inhibition of isolated urethra contracting action by ramelteon” value was “inhibited in a concentration-dependent manner”.

On to `CCC(=O)NC[C@@H]1C[C@H]1c1cccc2c1CCO2` [tasimelteon, (−)-(trans)-N-{[2-(2,3-dihydrobenzofuran-4-yl)cyclopropan-l-yl]methyl}propanamide], for which the “intracellular Ca^2+ concentration (melatonin receptor activating action)” value in assay [2] and in assay [3] was “increased” throughout. For the same compound, in assay [4], the urethra contracting action entry is given as “contracted the isolated urethra”. The “urethral pressure increasing action” value in assay [1] (setting [8]) is “increased the urethral pressure”.
